# Data published in patent US10968198B2, “Biaryltriazole inhibitors of macrophage migration inhibitory factor” (YALE UNIVERSITY, priority 2015, dated 2021).
# Biological target: human MIF (Homo sapiens (Human), UniProt P14174)
# Assay: X-ray crystallography of complexes with human MIF
# Conditions: co-crystal or soak
# Method: The solution was centrifuged at 13,000×g to remove precipitated compound and used to set up hanging-drop crystallization experiments. A reservoir of 2.0 M ammonium sulfate, 0.1 M Tris pH 7, and 3% isopropanol was added to the protein solution in a 1:1 ratio and stored at 20° C. Diffraction-quality crystals with a rod morphology grew within two weeks. The crystals were cryo-protected in 25% glycerol, 2.0M ammonium sulfate, 0.1 M Tris pH 7, and 3% isopropanol. Data was collected at the Advanced Photon Source remotely on the NE-CAT 24-ID-E beam line. […] Crystals were obtained by the hanging-drop method at 20° C. A reservoir of 2.2 M ammonium sulfate, 0.1 M Tris pH 7, and 3% isopropanol mixed in a 1:1 ratio with rhMIF (16 mg/mL) was used to produce 2 μL drops. […] Crystals were cryo-protected with 25% glycerol, 2.2 M ammonium sulfate, 0.1 M Tris pH 7, and 3% isopropanol. […] HKL2000 was used to index, integrate, and scale the MIF-3a data set in the […] space group and the MIF-3b in the P212121 space group. Phases were obtained by molecular replacement with PDB file 3U18 using the CCP4 and PHASER programs. Model building was performed in COOT with iterative restrained refinement with REFMAC.
row,Structure (SMILES),binding site in X-ray crystal structure of complex with human MIF
1,"Oc1ccc(-n2cc(-c3ccc4ccccc4n3)nn2)cc1 [Example 3a, 4-(4-(quinolin-2-yl)-1H-1,2,3-triazol-1-yl)phenol]",binding of these inhibitors in the tautomerase active site
2,"COCCOc1ccc2nc(-c3cn(-c4ccc(O)cc4)nn3)ccc2c1 [Example 3b, 4-(4-(6-(2-methoxyethoxy)quinolin-2-yl)-1H-1,2,3-triazol-1-yl)phenol]",binding of these inhibitors in the tautomerase active site
3,"Oc1ccc(-n2cc(-c3ccc4cc(OCCOCCN5CCOCC5)ccc4n3)nn2)cc1 [Example 3v, 4-(4-(6-(2-(2-morpholinoethoxy)ethoxy)quinolin-2-yl)-1H-1,2,3-triazol-1-yl)phenol]",binding of these inhibitors in the tautomerase active site
